Assay results: patent US20080014248A1, “Photosensitizer containing indole-3-alkylcarboxylic acid, and kit for photodynamic therapy containing the same” (priority 2006, published 2008)

Legend:
[1] = test system: G361 human melanoma cell line; assay: G361 cell toxicity experiment (MTT assay), IAA with or without HRP; type: cell-based; conditions: 20 hours, G361 cells, FIG. 1
Experimental: G361 human melanoma cell line (ATCC, Rockville, Md.) was cultivated in a 5% CO2, 37 °C, 10% fetal bovine serum (FBS), and 50 μg/mL penicillin containing RPMI 1640 culture (WelGene, Daegu, Korea).
The cells cultivated in the medium were divided into 24 wells (4×10^4/well), and was then cultivated in a medium without FBS for 24 hours. Cytotoxic effect was measured using MTT (3,4-dimethylthiazol-2-yl)2,5-diphenyltetrazolium bromide) assay (Kim, D. S., Jeon, S. E., Park, K. C. Cell Signal, 16, 81-8, 2004).
An HRP (1.2 mg/ml, Sigma, St. Louis, Mo.) treated group (indicated by the ‘∘’ in FIG. 1) and a group untreated with HRP (indicated by the ‘▪’ in FIG. 1) were separated, each with a final IAA density between 1 and 500 mM in the culture. After cultivating for 20 hours, 0.5 mg/Ml of MTT was added to the culture and cultivated for 4 more hours. After adding and dissolving 1 ml of dimethylsufoxide solution in the well, the absorption was measured using ELISA reader (TECAN, Salzburg, Austria) at 540 nm. The viability rate for the control group was set at 100%.
(Calculations) Cell viability(%)=(experimental group/control group absorption)×100

[2] = test system: Stomach cancer cell line (SNU1, SNU16, SNU601, SNU719), lung cancer cell line (NCI-H157, NCI-H1264), liver cancer cell line (SK-HEP-1); assay: Toxicity experiment of various cell types (MTT assay), IAA/HRP, cancer cells; type: cell-based; conditions: 20 hours, FIG. 2a-2c
Experimental: (§1) Stomach cancer cell line (SNU1, SNU16, SNU601, SNU719, Korean Cell Bank, Seoul, Korea), and lung cancer cell line (NCI-H157, NCI-H1264, Korea Cell Bank, Seoul, Korea) were cultivated in a 5% CO2, 37 °C, 10% FBS, and 50 μg/mL penicillin containing RPMI 1640 culture (WelGene, Daegu, Korea), and liver cancer cell line (SK-HEP-1, Korean Cell Bank, Seoul, Korea) was cultivated in DMEM culture (WelGene, Daegu, Korea) under the same conditions. Fibroblasts have been used for the separation of the foreskin during phimosiectomy. […]
(§2) The cells cultivated in the medium were divided into 24 wells (4×10^4/well), and were then cultivated in a medium without FBS for 24 hours. Cytotoxic effect was measured using MTT (3,4-dimethylthiazol-2-yl)2,5-diphenyltetrazolium bromide) assay (Kim, D. S., Jeon, S. E., Park, K. C. […]
(§3) An HRP (1.2 mg/ml) treated group and a group untreated with HRP was separated, each with a final IAA concentration between 1 and 1000 mM in the culture. […] After adding and dissolving 1 ml of dimethylsufoxide solution in the well, the absorption was measured using ELISA reader at 540 nm. […]

normal human fibroblasts [3] = assay: Toxicity experiment of various cell types (MTT assay), IAA/HRP, fibroblasts; type: cell-based; conditions: 20 hours, FIG. 2a-2c
Experimental: as §1, §2, §3

[4] = test system: G361 human melanoma cell line, mouse melanoma cell line B16, liver cancer cell (SK-HEP-1); assay: Toxicity experiment (MTT assay), IAA with UVB irradiation, cancer cells; type: cell-based; conditions: 1 to 1000 mM, 20 hours, FIG. 3
Experimental: (§4) (Cell Culture) After cultivating G361 human melanoma cell line (ATCC, Rockville, Md.) in a 5% CO2, 37 °C, 10% fetal bovine serum (FBS), 50 μg/mL streptomyocin, and 50 μg/mL penicillin containing DMEM culture, mouse melanoma cell line B16 (Korea Cell Bank, Seoul, Korea) liver cancer cell (SK-HEP-1, Korea Cell Bank, Seoul, Korea) was cultivated in the DMEM culture under the same conditions. Fibroblasts have been used for the separation of the foreskin during phimosiectomy. Following the skin biopsy method of Rheinward and Green (Rheinwald J G, Green H. Serial cultivation of strains of human epidermal keratinocytes; the formation of keratinizing colonies from single cells. Cell 1975;6: 331-43.), the […] were cultivated in a 10% fetal bovine serum (FBS), 50 μg/mL of streptomyocin, and 50 μg/mL of penicillin containing DMEM culture.
(§5) The cells cultivated in the medium were divided into 24 wells (4×10^4/well), and was then cultivated in a medium without FBS for 24 hours. Cytotoxic effect was measured using MTT (3,4-dimethylthiazol-2-yl)2,5-diphenyltetrazolium bromide) assay. An ICA group treated with UVB (100 mJ/cm^2) and a group with ICA alone were separated, each with a final IAA concentration between 1 and 1000 mM in the culture. […] After adding and dissolving 1 ml of dimethylsufoxide solution in the well, the absorption was measured using ELISA reader at 540 nm. […]

normal human fibroblasts [5] = assay: Toxicity experiment (MTT assay), IAA with UVB irradiation, fibroblasts; type: cell-based; conditions: 1 to 1000 mM, 20 hours, FIG. 3
Experimental: as §4, §5

[6] = Photo-activation of IAA by different wavelength of light, free radical formation by DCF (dichlorofluorescein) assay; type: physicochemical; conditions: 1 mM IAA, HL-2000-HP irradiator, FIG. 4
Experimental: In order to study the effects of different wavelength of light, IAA was irradiated with HL-2000-HP (Ocean Optics, Dunedin, Fla., USA). Free radical formation was measured by DCF (dichlorofluorescein) assay. In order to induce activity of DCFH-DA, DCFH-DA was dissolved to a 1 mM concentration in 100% ethanol. 350 ul of the solution was then added to 1.75 ml of 0.01 N NaOH and allowed reaction for 5, 10, and 20 minutes. The activated DCFH-DA solution was then prepared by mixing 17.9 ml of 25 mM natrium-phosophoric acid buffer solution (pH 7.2). 1 mM of IAA was then administered to the activated DCFH-DA, and using HL-2000HP light irradiator, various wavelength filters (380, 400, 480, 520, 590, 640 nm) (Thorlabs, Inc., Long Beach, Calif., USA) were used to observe any photoactivation of IAA using each wavelength. Absorption was measured using ELISA reader at 490 nm.

[7] = test system: Human lung cancer cells (NCI-H1264 cell) tumor; assay: Treatment of cancer by combination of IAA and IPL in nude mouse (Hematoxylin & Eosin stain, TUNEL assay); type: in vivo; conditions: IAA 50 mg/kg intravenous, 4 and 7 days after cancer cell injection, IPL 20 J/cm2 thirty minutes later, biopsy at twelve days, FIG. 6
Excerpt: Intense pulse light (IPL) flash lamp by Eclipse was used for visible light irradiation. 20 Irradiation of 20 J/cm^2 intensity was used with a IPL apparatus able to irradiate between 515 nm to 1200 nm. After applying transmission gel (PROGEL DA-YO Medical, Seoul, Korea) to areas of tumor formation each region was irradiated twice using IPL. Human lung cancer cells (NCI-[…] cell, 1×10^6) were subcutaneously injected into nude mouse (Charles River Lab. Wilmington, Mass./male, 6 weeks old, weight 22-25 g). […] 4 and 7 days after cancer cell injection, these mice were injected with IAA (50 mg/kg). Thirty minutes after intravenous injection of IAA, mice were irradiated with IPL (20 J/cm2). Twelve days after cancer cell injection, biopsy was done and tunnel stain was also performed. […] Experimental IAA (10 mg/ml in 50 mM NaHCO/2% v/v ethanol/water, pH 7) was prepared. A control group of mice with tumor mass formation and an experimental group of mice injected with IAA (pH 7, 50 mg/kg) were separated. The injected group was again separated into two groups, one group treated with IAA after 4 days of cancer cell injection and the other after 7 days. Thirty minutes after intravenous injection of IAA, mice were irradiated with IPL (20 J/cm2). A TUNEL (Chemicon, Temecula, Calif.) assay kit was used for the present experiment. […]

NCI-H1264 cell = assay: Prevention of cancer by combining IAA and IPL (treatment before appearance of tumor mass, biopsy); type: in vivo, nude mouse; conditions: IAA and IPL treatment one, three and five days after NCI-H1264 cell injection, biopsy ten days after injection, FIG. 7
Experimental: It was observed that the combination of IAA and IPL could induce cancer cell necrosis. However, prevention of histologic or distant metastasis is more important in the treatment of cancer. In order to study the prevention effect, IAA and IPL treatment was performed after cancer cell injection but before the appearance of tumor mass. One, three, and five days after NCI-[…] cell injection, IAA and IPL treatment was performed. Ten days after cancer cell injection, biopsy was done. […] Thus, it can be said that IAA and IPL treatment was effective in the prevention of distant metastasis.

- activation of IAA by light (free radical formation, DCF assay) ([6]; 480 nm (blue) filter): particularly effective
- activation of IAA by light (free radical formation, DCF assay) ([6]; 520 (green) filter): particularly effective
Compound: O=C(O)Cc1c[nH]c2ccccc12 [IAA, Indole-3-acetic acid]
- cytotoxic effects (cell viability, MTT) ([1]; IAA alone (no HRP), IAA 1 to 500 mM): no signs of cytotoxic effects
- cytotoxic effects (cell viability, MTT) ([1]; IAA and HRP (1.2 mg/ml), IAA density of at least 100 mM): definite cytotoxic effects
- toxicity (cell viability, MTT) ([2]; IAA administered with HRP (1.2 mg/ml)): toxic to most of the cancer cells
- toxicity (cell viability, MTT) ([2]; IAA alone, 1 to 1000 mM): not toxic to either normal cells or cancer cells
- toxicity (cell viability, MTT) (normal human fibroblasts [3]; IAA administered with HRP (1.2 mg/ml), normal human fibroblasts): not toxic to normal human fibroblasts
- toxicity (cell viability, MTT) (normal human fibroblasts [3]; IAA alone, 1 to 1000 mM, normal cells (fibroblasts)): not toxic to either normal cells or cancer cells
- toxicity (cell viability, MTT) ([4]; IAA alone): not toxic to either normal cells or cancer cells
- toxicity (cell viability, MTT) ([4]; IAA treated with UVB (100 mJ/cm^2)): toxic to most of the cancer cells
- toxicity (cell viability, MTT) (normal human fibroblasts [5]; IAA alone, normal cells (fibroblasts)): not toxic to either normal cells or cancer cells
- toxicity (cell viability, MTT) (normal human fibroblasts [5]; IAA treated with UVB (100 mJ/cm^2), normal human fibroblasts): not toxic to normal human fibroblasts
- tumor necrosis (Hematoxylin & Eosin stain and TUNEL assay) [7]: can induce tumor necrosis
- tumor cell growth (biopsy) (NCI-H1264 cell): not observed in treated tissues
